{"source": "patent US9668988B2", "about": "“Controlled release oral pharmaceutical dosage forms comprising MGBG” (Pathologica LLC, priority 2011, dated 2017)", "key": {"[1]": {"assay": "Multi-species allometric scaling to predict human pharmacokinetic parameters", "set-up": "species or system humans", "conditions": "predicted human, ORAL, based on Mouse, Dog, Rhesus", "excerpt": "Multi-species allometric scaling based on pharmacokinetic parameters was employed to calculate predicted pharmacokinetic parameters in humans according to methods known in the art. See, e.g., Ings R M, “Interspecies scaling and comparisons in drug development and toxicokinetics,” Xenobiotica, 1990 November; 20(11):1201-31 and Khor, S P et al., “Dihydropyrimidine dehydrogenase inactivation and 5-fluorouracil pharmacokinetics: allometric scaling of animal data, pharmacokinetics and toxicodynamics of 5-fluorouracil in humans,” Cancer Chemother Pharmacol (1997) 39(3): 833-38. Expected values are given below in Table 2."}, "[2]": {"tested_on": "carrageenan-induced hyperalgesia", "assay": "murine carrageenan-induced hyperalgesia model", "format": "in vivo, mice", "conditions": "PO BID (totaling 60 mg/kg/day)", "method": "(§1) In both the murine carrageenan-induced paw edema and hyperalgesia models, the top efficacious dose of MGBG is 30 mg/kg PO BID (totaling 60 mg/kg/day). Based upon this dosing paradigm in mice, at least two methods to estimate the equivalent dosing in humans may be used.\n(§2) In the murine carrageenan models, we also observed efficacy of MGBG at lower doses, including 3 mg/kg PO BID and 10 mg/kg PO BID, which would proportionally convert to human doses of ˜0.42 mg/kg/day and ˜1.2 mg/kg/day."}, "[3]": {"tested_on": "carrageenan-induced paw edema", "assay": "murine carrageenan-induced paw edema model", "format": "in vivo, mice", "conditions": "PO BID (totaling 60 mg/kg/day)", "method": "as §1, §2"}, "[4]": {"tested_on": "beagle dogs", "assay": "In vivo evaluation of enterically coated capsules: tolerability / clinical observations", "conditions": "single oral doses 10, 30, 100 mg/kg", "excerpt": "A comparative study of single, escalating doses of enterically coated MGBG capsules was undertaken in order to ascertain the feasibility and pharmacologic effect of delaying release of MGBG until the capsule has passed the stomach. […] Six male beagle dogs aged approximately 4 years 8 months to 5 years 6 months and weighing 10.95 to 12.85 kg (Covance Research Products) were weighed, acclimatized, and randomly assigned to treatment groups as shown below in Table 5.\nThe test article was administered once at each dose level during the study orally via capsule. Duplicate sets of enteric-coated capsules were prepared for each animal at each dose and evaluated for dissolution. The duplicate sample was placed in a 0.1 N HCl solution, and stirred using a magnetic stir bar and stir plate, for at least two hours. Triplicate samples of the acidic dissolution media were collected for analysis of MGBG content. The capsule was transferred to a phosphate buffer solution (pH 6.8), and stirred using a magnetic stir bar and stir plate, for approximately one hour. The capsule was visually inspected for signs of deformation. […]\nObservations for morbidity, mortality, injury, and the availability of food and water were conducted twice daily for all animals. […] On occasion, clinical observations were recorded at unscheduled intervals. Body weights were measured and recorded on Days 1-4, 5, 12, and 32."}}, "data": [{"smiles": "CC(/C=N/NC(=N)N)=N\\NC(=N)N", "note": "[MGBG, 1,1′[methylethanediylidene]dinitrilodiguanidine]", "values": [{"measurement": "CL/F", "setting": "[1]", "value": 20.9, "unit": "mL/min/kg"}, {"measurement": "V/F", "setting": "[1]", "value": 41.6, "unit": "L/kg"}, {"measurement": "t1/2", "setting": "[1]", "value": 23.0, "unit": "h"}, {"measurement": "CL/F", "setting": "[1]; Rat", "value": 21.0, "unit": "mL/min/kg"}, {"measurement": "V/F", "setting": "[1]; Rat", "value": 42.4, "unit": "L/kg"}, {"measurement": "t1/2", "setting": "[1]; Rat", "value": 23.3, "unit": "h"}, {"measurement": "top efficacious dose", "setting": "[2]", "value": 30, "unit": "mg/kg"}, {"measurement": "top efficacious dose", "setting": "[3]", "value": 30, "unit": "mg/kg"}, {"measurement": "tolerability / survival", "setting": "[4]", "value": "All dose levels were tolerated with all animals surviving to study termination"}]}]}
